Like-named read-outs stand apart in the source and are kept apart here.
Experiments:
[1] = biological target: recombinant SARS-CoV-2 Main protease (Mpro) (Severe acute respiratory syndrome coronavirus 2 (2019-nCoV) (SARS-CoV-2), UniProt P0DTD1); experiment: Cov Mpro Biochemical IC50 Assay
[2] = test system: SARS-CoV-2-NLuc; experiment: microbe, parasite or virus in culture; type: cell-based, SARS Coronavirus 2
[3] = recombinant SARS-CoV-2 Mpro 7.5 nM, fluorogenic peptide substrate 40 μM, read-out: MPro IC50
[4] = Severe acute respiratory syndrome coronavirus, 48 h; read-out: MPro EC50
[5] = recombinant SARS-CoV-2 Mpro, fluorogenic peptide substrate, read-out: MPro IC50
[6] = Severe acute respiratory syndrome coronavirus, 48 h, read-out: MPro EC50

Structure (SMILES) | IC50 [1, 3] | IC50 [1, 5] | EC50 [2, 6] | also measured
COc1cc(-c2cc3c(s2)c(=O)n(-c2cncc4ccccc24)c(=O)n3Cc2cc(F)c(F)c(F)c2)c(Cl)cc1F [Example 1099, 6-(2-chloro-4-fluoro-5-methoxy-phenyl)-3-(4-isoquinolyl)-1-[(3,4,5-trifluorophenyl)methyl]thieno[3,2-d]pyrimidine-2,4-dione] | 388 nM | – | – | EC50 [2, 4]: 921 nM
Cn1ncc(-c2cccc(Cl)c2-c2ccc3c(=O)n(-c4cncc5ccccc45)c(=O)[nH]c3c2)c1C(F)(F)F [Example 272] | – | 212 nM | 39.6 nM | –
COc1cc(F)cc(Cl)c1-c1ccc2c(=O)n(-c3cncc4ccccc34)c(=O)[nH]c2c1 [Example 651] | 336 nM | – | 135 nM | –
COc1cc(-c2cc3c(s2)c(=O)n(-c2cncc4c2n(C)c(=O)n4C)c(=O)n3CCC#N)c(Cl)cc1F [Example 937] | 8.42 nM | – | 11.4 nM | –
COc1cc(-c2ccc3c(=O)n(-c4cncc5ccccc45)c(=O)[nH]c3c2)c(C#N)cn1 [Example 335] | – | 290 nM | 991 nM | –
Cn1cnc(Cn2c(=O)n(-c3cncc4ccccc34)c(=O)c3sc(-c4ccccc4Cl)cc32)n1 (single isomer, unassigned) [Example 478, 6-(2-chlorophenyl)-3-(4-isoquinolyl)-1-[(1-methyl-1,2,4-triazol-3-yl)methyl]thieno[3,2-d]pyrimidine-2,4-dione] | 4290 nM | – | – | EC50 ([2]; read-out: MPro EC50): 8280 nM
CC1(C)Cc2c(-c3cccc(Cl)c3-c3ccc4c(=O)n(-c5cncc6ccccc56)c(=O)[nH]c4c3)cnn2C1 [Example 190] | – | 19.7 nM | 16.4 nM | –
COc1cc(-c2cc3[nH]c(=O)n(-c4cncc5nc(C)n(C)c45)c(=O)c3s2)c(Cl)cc1F [Example 764] | 18.1 nM | – | 257 nM | –
COc1cc(-c2cc3c(s2)c(=O)n(-c2cncc(Cl)c2)c(=O)n3CCC#N)c(Cl)cc1F [Example 985] | 2.11 nM | – | 6.7 nM | –
COc1ccc(C#N)c(-c2cc3[nH]c(=O)n(-c4cncc5cnn(C)c45)c(=O)c3s2)c1 [Example 506] | 19.6 nM | – | 99.5 nM | –
CN(C)C(=O)c1cccc(-c2cccc(Cl)c2-c2ccc3c(=O)n(-c4cncc5ccccc45)c(=O)[nH]c3c2)c1 [Example 188] | – | 121 nM | 59.4 nM | –
O=c1[nH]c2cc(-c3c(F)cccc3Cl)ccc2c(=O)n1-c1cncc2ccccc12 [Example 162, 7-(2-Chloro-6-fluoro-phenyl)-3-(4-isoquinolyl)-1H-quinazoline-2,4-dione] | – | 344 nM | 392 nM | –
COc1ccc(Cl)c(-c2ccc3c(=O)n(-c4cncc5ccc(N6CC7(CCOC7)C6)cc45)c(=O)[nH]c3c2)c1 [Example 410] | 12.8 nM | – | – | EC50 [2, 4]: 58.6 nM
O=c1[nH]c2cc(-c3c(Cl)cccc3OCc3cscn3)ccc2c(=O)n1-c1cncc2ccccc12 [Example 86, 7-[2-chloro-6-(thiazol-4-ylmethoxy)phenyl]-3-(4-isoquinolyl)-1H-quinazoline-2,4-dione] | – | 112 nM | – | EC50 ([2]; read-out: MPro EC50): 144 nM
Cc1ncccc1-c1cc2[nH]c(=O)n(-c3cncc4ccccc34)c(=O)c2s1 [Example 23] | – | 258 nM | 800 nM | –
CNC(=O)[C@H]1C[C@@H]1c1cncc(-n2c(=O)[nH]c3cc(-c4ccccc4Cl)sc3c2=O)c1 [Example 383] | – | 5.23 nM | 286 nM | –
C#Cc1ccccc1-c1ccc2c(=O)n(-c3cncc4ccccc34)c(=O)[nH]c2c1 [Example 28] | – | 340 nM | 536 nM | –
CS(=O)(=O)N1CCN(c2ccc3cncc(-n4c(=O)[nH]c5cc(-c6ccccc6Cl)sc5c4=O)c3c2)CC1 [Example 421] | 4.42 nM | – | 38.8 nM | –
COc1cc(-c2cc3[nH]c(=O)n(-c4cncc5c(CO)nn(C)c45)c(=O)c3s2)c(Cl)cc1F [Example 699] | 10.6 nM | – | 470 nM | –
O=c1[nH]c2cc(-c3ccccc3Cl)sc2c(=O)n1-c1cncc2ncccc12 [Example 134] | – | 63.3 nM | 150 nM | –
O=c1[nH]c2cc(-c3ccccc3)ncc2c(=O)n1-c1cncc2ccccc12 [Example 164] | – | 7880 nM | 12500 nM | –
Cc1ccc(-c2ccc3c(=O)n(-c4cncc5ccccc45)c(=O)[nH]c3c2)c(Cl)c1 [Example 192] | – | > 50000 nM | 3890 nM | –
COc1cc2c(=O)n(-c3cncc4ccccc34)c(=O)[nH]c2cc1-c1c(Cl)cccc1OC [Example 77] | – | 131 nM | – | EC50 [2, 4]: 115 nM
COc1cc(-c2cc3c(s2)c(=O)n(-c2cncc(CO)c2)c(=O)n3CCC#N)c(Cl)cc1F [Example 1100, 3-(6-(2-chloro-4-fluoro-5-methoxyphenyl)-3-(5-(hydroxymethyl)pyridin-3-yl)-2,4-dioxo-3,4-dihydrothieno[3,2-d]pyrimidin-1(2H)-yl)propanenitrile] | 2.6 nM | – | – | EC50 [2, 4]: 15 nM

Structure (SMILES) | IC50 [1, 3] | IC50 [1, 5] | EC50 [2, 6] | also measured
COc1cc(-c2nc3c(s2)c(=O)n(-c2cncc4ccccc24)c(=O)n3CC#N)c(Cl)cc1F [Example 705] | 4.74 nM | – | 8.11 nM | –
COc1cc(-c2cc3c(s2)c(=O)n(-c2cncc4ncccc24)c(=O)n3CCC#N)c(Cl)cc1F [Example 915] | 8.9 nM | – | 19.4 nM | –
Cc1ccc(-c2cc3[nH]c(=O)n(-c4cncc5cnn(C)c45)c(=O)c3s2)c(C#N)c1 [Example 841] | 134 nM | – | 523 nM | –
O=c1[nH]c2cc(-c3ccccc3Cl)sc2c(=O)n1-c1cncc2ccc(N3CC4(C3)CS(=O)(=O)C4)cc12 [Example 395] | 7.25 nM | – | 80.7 nM | –
O=c1[nH]c2cc(-c3cc(C4CC4)ccc3Cl)sc2c(=O)n1-c1cncc2ccccc12 [Example 351] | – | 19.6 nM | 69.2 nM | –
COc1cc(-c2cc3[nH]c(=O)n(-c4cncc5ccccc45)c(=O)c3cc2OC)c(C#N)cc1F (single isomer, unassigned) [Example 571, 5-fluoro-2-[3-(4-isoquinolyl)-6-methoxy-2,4-dioxo-1H-quinazolin-7-yl]-4-methoxy-benzonitrile] | 77.1 nM | – | – | EC50 ([2]; read-out: MPro EC50): 171 nM
COc1cc(-c2cc3c(s2)c(=O)n(-c2cncc4cccc(C)c24)c(=O)n3CCC#N)c(Cl)cc1F (atropisomer, axis not shown) [Example 920] | 5.5 nM | – | 4.25 nM | –
Cn1nncc1-c1cccc(Cl)c1-c1ccc2c(=O)n(-c3cncc4ccccc34)c(=O)[nH]c2c1 [Example 567, 7-[2-chloro-6-(3-methyltriazol-4-yl)phenyl]-3-(4-isoquinolyl)-1H-quinazoline-2,4-dione] | 50.9 nM | – | – | EC50 ([2]; read-out: MPro EC50): 228 nM
O=c1[nH]c2cc(-c3c(Cl)cc(Cl)c4c3CCO4)sc2c(=O)n1-c1cncc2ccccc12 [Example 647] | 10.9 nM | – | 25.9 nM | –
COc1ccc(Cl)c(-c2cc3[nH]c(=O)n(-c4cncc5ccc(N6CCO[C@H](C(F)(F)F)C6)cc45)c(=O)c3s2)c1 [Example 415] | 11.7 nM | – | – | EC50 [2, 4]: 26.6 nM
N#Cc1ccc(F)c(-c2cc3[nH]c(=O)n(-c4cncc5ccccc45)c(=O)c3s2)c1 [Example 547] | 170 nM | – | > 1000 nM | –
Cc1nc2cncc(-n3c(=O)c4sc(-c5ccc(F)cc5Cl)cc4n(CCC#N)c3=O)c2n1C (single isomer, unassigned) [Example 966, 3-(6-(2-chloro-4-fluorophenyl)-3-(1,2-dimethyl-1H-imidazo[4,5-c]pyridin-7-yl)-2,4-dioxo-3,4-dihydrothieno[3,2-d]pyrimidin-1(2H)-yl)propanenitrile] | 309 nM | – | – | EC50 ([2]; read-out: MPro EC50): > 1000 nM
CS(=O)(=O)c1cccc(-c2cccc(Cl)c2-c2ccc3c(=O)n(-c4cncc5ccccc45)c(=O)[nH]c3c2)c1 [Example 269] | – | 10.7 nM | < 5.29 nM | –
COc1cccc(C#N)c1-c1cc2[nH]c(=O)n(-c3cncc4ccccc34)c(=O)c2s1 [Example 536] | 21.2 nM | – | 46.4 nM | –
COc1cc(-c2cc3c(s2)c(=O)n(-c2cncc4cnn(C)c24)c(=O)n3CCC#N)c(C#N)cn1 [Example 776] | 233 nM | – | 578 nM | –
N#CCCn1c(=O)n(-c2cnccn2)c(=O)c2sc(-c3ccccc3C#N)cc21 [Example 830] | 350 nM | – | – | EC50 [2, 4]: > 1000 nM
Cc1cncc(-c2cccc(Cl)c2-c2ccc3c(=O)n(-c4cncc5ccccc45)c(=O)[nH]c3c2)c1 [Example 198] | – | 8.77 nM | 8.47 nM | –
COc1cc(-c2cc3[nH]c(=O)n(-c4cncc5ccccc45)c(=O)c3cc2F)c(Cl)cc1F (single isomer, unassigned) [Example 1006, 7-(2-chloro-4-fluoro-5-methoxy-phenyl)-6-fluoro-3-(4-isoquinolyl)-1H-quinazoline-2,4-dione] | – | – | – | IC50 ([1]; MPro IC50, recombinant SARS-CoV-2 Mpro 7.5 nM, fluorogenic peptide substrate 40 μM): 23.8 nM; EC50 ([2]; read-out: MPro EC50): 9.33 nM
Cn1ncc2cncc(-n3c(=O)[nH]c4cc(-c5cc(F)ccc5C#N)sc4c3=O)c21 [Example 700] | 54.6 nM | – | – | EC50 [2, 4]: 466 nM
O=c1c2sc(-c3ccccc3Cl)cc2n(Cc2cccnn2)c(=O)n1-c1cncc2ccccc12 [Example 154] | – | 124 nM | 193 nM | –
COc1cc(-c2cc3[nH]c(=O)n(-c4c(C)ccnc4F)c(=O)c3s2)c(Cl)cc1F [Example 738] | 13.4 nM | – | – | EC50 [2, 4]: 26.2 nM
O=c1[nH]c2cc(-c3c(Cl)cccc3Cl)ccc2c(=O)n1-c1cncc2ccccc12 [Example 95, 7-(2,6-dichlorophenyl)-3-(isoquinolin-4-yl)quinazoline-2,4(1H,3H)-dione] | – | 1590 nM | – | EC50 [2, 4]: 680 nM
COc1cc(-c2cc3[nH]c(=O)n(-c4cncc5cc(C#N)sc45)c(=O)c3s2)c(Cl)cc1F [Example 1011, 7-[6-(2-chloro-4-fluoro-5-methoxy-phenyl)-2,4-dioxo-1H-thieno[3,2-d]pyrimidin-3-yl]thieno[3,2-c]pyridine-2-carbonitrile] | 14.5 nM | – | 81.2 nM | –

— US20240116946A1 (Gilead Sciences, Inc., priority 2022, published 2024)
